Data taken from patent US20050181029A1, “Distributed drug dispensing matrix as a transdermal patch” (priority 2004, published 2005).

How the values were obtained:
Type in all cases: in vitro ADME, pig
[1] = Polycarbonate/teflon array assembly, mannitol delivery across skin vs Franz diffusion cell; conditions: reservoir size approaching 2.5 mm vs single 8 mm (16 mm diameter Franz cell) reservoir; 10 μCi/mL 3H-mannitol in 0.5% SLS in PBS; 24 hours
Procedure: The present invention is a novel transdermal drug delivery patch with an array of spatially organized reservoirs. In order to verify the validity of our invention we used three different assemblies, simulating the proposed matrix patch, that in essence provide the same working principle. All experiments were performed using pig skin. Skin was harvested from pigs (15) and was stored at −70° C. until the time of experiments. Skin was thawed at room temperature just before using it for experiments. A brief discussion of the experimental system used for the three cases follows. I. Polycarbonate/Teflon Array Assembly: This assembly consists of two plates made of polycarbonate/teflon—a donor plate and a receiver plate. The top plate (donor plate) has through holes (wells) drilled in it, each of which acts as an isolated donor chamber. The bottom plate (receiver plate) also has holes (wells) drilled in the same pattern as the donor plate and simulates the receiver compartment. The skin is placed between the donor and receiver plate and the plate assembly is clamped using four screws. […] At the end of 24 hours samples were drawn from the receiver plate and analyzed in a liquid scintillation counter (Packard Tri-Carb 2100TR, Packard Instrument Company, Meriden, Conn.). […] The data was then analyzed to verify any effect of a distributed dispensing system on the amount of drug delivered across the skin. […]

[2] = Polymer (polyurethane) array assembly, mannitol skin permeability; conditions: polyurethane arrays, reservoirs 6 to 2 mm, relative to 6 mm reservoir; 0.5% SLS in PBS; 24 hrs; no clamping
Procedure: Polymer (Polyurethane) Array Assembly: Skin was placed in a PBS receiver fluid (10 ml) such that PBS contacted the skin on all sides and the bottom but not the top (FIG. 5). An array of liquid reservoirs was created by punching circular holes in a matrix pattern in a polyurethane slab (thickness=5 mm). These holes were separated from each other by one diameter. Such arrays were made for different size reservoirs (diameters in the range of 2-6 mm). The top surface of the skin was dried of any surface moisture. […]
Transdermal transport experiments were performed using mannitol as a model solute and sodium lauryl sulfate (SLS) as a model enhancer. […] Skin permeability in the skin exposed to reservoirs was calculated for each reservoir size by dividing the total amount delivered by the number of reservoirs, area of each reservoir, contact time, and mannitol concentration in each reservoir. Enhancement factors corresponding to various reservoir sizes were then calculated with reference to the permeability obtained from the largest reservoir (6 mm).
The enhancements are calculated with respect to the permeability obtained from a 6 mm reservoir.

[3] = Agar gel disc assembly on Franz diffusion cell, mannitol skin permeability; conditions: agar gel disks 16, 9, 5 and 3 mm, relative to 16 mm disk; 0.5% SLS in PBS; 24 hrs
Procedure: All experiments were performed using pig skin. Skin was harvested from pigs (15) and was stored at −70° C. until the time of experiments. Skin was thawed at room temperature just before using it for experiments. […] Agar Gel Disc Assembly: A third experimental system was used to assess the dependence of permeability on contact area. In this system, permeation of mannitol from gel disks was studied. For this purpose, agar gel disks were prepared by dissolving 0.5 gm agar (Becton Dickinson Microbiology Systems, Sparks, Md.) in 20 ml of 0.5% solution (w/v) SLS in PBS. 10 μCi/ml ^3H radiolabeled mannitol was added to the mixture. The mixture was heated until agar formed a viscous solution. The viscous mixture was allowed to settle into a gel by pouring it into a petri dish to form a circular disc of 3.5 mm thickness. Disks of various diameters (16, 9, 5, and 3 mm) were then cut using a punch. […] Receiver compartments were sampled over 24 hrs and concentration of radiolabeled mannitol in these samples was measured using a scintillation counter. Permeability was calculated for each reservoir size by dividing the total flux obtained by the number of reservoirs at that particular size. Enhancement factors were calculated by dividing the permeability obtained from a disk of a particular size with reference to permeability obtained from the largest disk (16 mm).

[4] = Patches holding agar gel disc reservoir arrays at constant area fraction, mannitol delivery; conditions: 3 mm reservoir array (28 reservoirs) vs one 16 mm reservoir; area fraction ~20%; skin area 10.25 cm^2; identical formulation
Excerpt: All enhancements are obtained by normalizing the amount delivered into the skin at any particular reservoir size to that delivered at 16 mm. Error bars correspond to one standard deviation (n=5).
To experimentally determine the enhancement obtained by reservoir arrays, we created patches holding reservoir arrays containing ^3H labeled mannitol as the model solute. These patches were created at varying reservoir sizes (16 mm, 9 mm, 5 mm and 3 mm). In these patches, the reservoirs were arranged in a square pattern with the center-to-center distance between two adjacent reservoirs set to twice the reservoir diameter. […] Keeping the area fraction the same for all the reservoir sizes (˜20%) drug reservoirs were placed on these skin pieces.

amount of mannitol delivered across the skin per unit area, normalized to single continuous reservoir [1]: exceeding 10 fold
amount of mannitol delivered per unit macroscopic area, array vs single large reservoir [4]: about 11 times
SMILES: OC[C@@H](O)[C@@H](O)[C@H](O)[C@H](O)CO [mannitol]
mannitol permeability enhancement as a function of reciprocal of reservoir size [2]: permeability enhancement increases with inverse reservoir size
mannitol permeability enhancement for varying reservoir sizes [3]: significant increase in permeability is observed with a decrease in disk diameter
